Measured values as given in PubChem BioAssay AID2060352 (Molecular Pharmacology Branch, DTP, NCI, 2025).

System: 616215-338-R-J1-PDC spheroid with HUVEC/MSC, viability
Assay: Anticancer human tumor 616215-338-R-J1-PDC patient-derived colon adenocarcinoma cell line growth inhibition [TAK]
Conditions: for IC50: curve of first compound; for viability, T/C: stronger effect = lower value
From the text: Combinatorial screen of targeted agents with TAK-243 and ipatasertib in multi-cell type tumor spheroids
A high-throughput screen of multi-cell type tumor spheroids was designed to identify active combinations of targeted small molecules and TAK-243 or ipatasertib. Complex spheroids include a stromal component modeled by human endothelial cells (HUVEC) and fibroblasts modeled by human mesenchymal stem cells (MSCs). The concentration ranges selected for each drug and investigational agent were based upon clinically achievable concentrations if the clinical Cmax of the agent was known.
Compounds. The drugs and investigational agents: TAK-243 (785004), ipatasertib (767898), everolimus (733504), selumetinib (741078), bortezomib (756655), trametinib (758246), ixazomib (758254), vemurafenib (761431), dabrafenib (764134), sapanisertib (764658), alpelisib (765974), and copanlisib (816437), were obtained from the National Cancer Institute (NCI) Developmental Therapeutics Program Chemical Repository. The FDA-approved anticancer drug set is available from the NCI Developmental Therapeutics Program. […] The stock solutions were prepared in dimethyl sulfoxide (DMSO, Sigma-Aldrich, St. Louis, MO, cat. D2650) at 800-fold the tested concentration and stored at -70 degrees C prior to their use. All drugs and investigational agents were tested over a range starting from a high concentration at or near the clinical Cmax and decreasing in half-log increments. If the clinical Cmax for an agent had not been determined, the highest concentration tested was 10 microM.
NCI60 Cell Culture. NCI60 cell lines were obtained from the NCI Developmental Therapeutics Program Tumor Repository. For each lot of cells, the Repository performed Applied Biosystems AmpFLSTR Identifiler testing with PCR amplification to confirm consistency with the published Identifier STR profile for each cell line. Cells were kept in continuous culture for no more than 20 passages. The optimal seeding densities for each of the cell lines at each time point assessed were determined prior to performing the concentration response studies. Briefly, the NCI60 human tumor lines were grown as monolayers in RPMI 1640 medium supplemented with 10% FBS and 2 mmol/L L-glutamine.
An additional 2 lines were from the NCI60 cell line panel including melanomas, MALME-3M and SK-MEL-2. Pooled donor human umbilical vein endothelial cells (HUVEC, Lonza, cat. CC-2519) and human mesenchymal stem cells (hMSC, Lonza, cat. PT-2501) were purchased from Lonza (Walkersville, MD).
PDMR cell lines were grown in complete medium (DC medium): Dulbecco's modified Eagle's medium (DMEM)/F12 supplemented with 5% fetal bovine serum (FBS), 2 mM L-glutamine, 100 U/mL penicillin and 100 µg/ml streptomycin, 0.4 µg/ml hydrocortisone, 10 ng/ml epidermal growth factor (EGF) recombinant human protein, 24 µg/mL adenine, and 0.1 mg/mL primocin. During culture from frozen stock vials, PDMR cells were cultured in the same medium containing 10 µM Y-27632 (see Table 3). The PDCs were cultured in complete DMEM/F12 media without 10 microM Y-27632 dihydrochloride for at least two passages prior to the screen. The pooled donor HUVEC and hMSC were cultured in endothelial cell growth medium 2 (PromoCell, Heidelberg, Germany, cat. C-22011) and mesenchymal stem cell growth medium 2 (PromoCell, cat. C-28009), respectively. For all experiments, HUVEC and hMSC were used at passages </=5.
For the pre-screen, cell seeding densities were determined from a titration spanning the range from 5,000 to 313 cells per well. The mct-spheroids including 60% malignant cells, 25% HUVEC and 15% MSC dispensed as a mixture into U-bottom Ultra-Low Attachment 384-well plates (Corning, NY)
High-throughput Drug Combination Screening.
Prior to their inoculation into 384-well plates, malignant cells, HUVEC, and hMSC were removed from T flasks using TrypLE express (Thermo Fisher Scientific, cat. 12605036) and harvested by centrifugation for 5 min at 233 x g. […]
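Also: spheroids exposed to drugs for 7 days before readout.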

Which results are given for `COC1CC2CCC(C)C(O)(O2)C(=O)C(=O)N2CCCCC2C(=O)OC(C(C)CC2CCC(OCCO)C(OC)C2)CC(=O)C(C)C=C(C)C(O)C(OC)C(=O)C(C)CC(C)C=CC=CC=C1C` (stereo not given) + CC(C)NCC(C(=O)N1CCN(c2ncnc3c2C(C)CC3O)CC1)c1ccc(Cl)cc1?
IC50 (second compound 0.3 µM): > 100 nM; IC50 (second compound 0.949 µM): > 100 nM; IC50 (second compound 3 µM): 2.28 nM; IC50 (second compound 9.49 µM): < 0.316 nM; IC50 (second compound 30 µM): < 0.316 nM; viability, T/C (second compound 0.3 µM, first compound 0.000316 µM): 133%; viability, T/C (second compound 0.3 µM, first compound 0.001 µM): 119%; viability, T/C (second compound 0.3 µM, first compound 0.00316 µM): 137%; viability, T/C (second compound 0.3 µM, first compound 0.01 µM): 129%; viability, T/C (second compound 0.3 µM, first compound 0.0316 µM): 130%; viability, T/C (second compound 0.3 µM, first compound 0.1 µM): 104%; viability, T/C (second compound 0.949 µM, first compound 0.000316 µM): 119%; viability, T/C (second compound 0.949 µM, first compound 0.001 µM): 125%; viability, T/C (second compound 0.949 µM, first compound 0.00316 µM): 111%; viability, T/C (second compound 0.949 µM, first compound 0.01 µM): 97.1%; viability, T/C (second compound 0.949 µM, first compound 0.0316 µM): 82.5%; viability, T/C (second compound 0.949 µM, first compound 0.1 µM): 80.3%; viability, T/C (second compound 3 µM, first compound 0.000316 µM): 61.5%; viability, T/C (second compound 3 µM, first compound 0.001 µM): 59.3%; viability, T/C (second compound 3 µM, first compound 0.00316 µM): 45.6%; viability, T/C (second compound 3 µM, first compound 0.01 µM): 38.3%; viability, T/C (second compound 3 µM, first compound 0.0316 µM): 35.8%; viability, T/C (second compound 3 µM, first compound 0.1 µM): 32.1%; viability, T/C (second compound 9.49 µM, first compound 0.000316 µM): 23.1%; viability, T/C (second compound 9.49 µM, first compound 0.001 µM): 20%; viability, T/C (second compound 9.49 µM, first compound 0.00316 µM): 17.2%; viability, T/C (second compound 9.49 µM, first compound 0.01 µM): 16.2%; viability, T/C (second compound 9.49 µM, first compound 0.0316 µM): 15.8%; viability, T/C (second compound 9.49 µM, first compound 0.1 µM): 14.9%; viability, T/C (second compound 30 µM, first compound 0.000316 µM): 9.82%; viability, T/C (second compound 30 µM, first compound 0.001 µM): 9.86%; viability, T/C (second compound 30 µM, first compound 0.00316 µM): 10.5%; viability, T/C (second compound 30 µM, first compound 0.01 µM): 9.81%; viability, T/C (second compound 30 µM, first compound 0.0316 µM): 8.34%; viability, T/C (second compound 30 µM, first compound 0.1 µM): 7.96%

What does the source list for `Cn1cnc2c(F)c(Nc3ccc(Br)cc3Cl)c(C(=O)NOCCO)cc21` + CC(C)NCC(C(=O)N1CCN(c2ncnc3c2C(C)CC3O)CC1)c1ccc(Cl)cc1?
IC50 (second compound 0.3 µM): 660 nM; IC50 (second compound 0.949 µM): 193 nM; IC50 (second compound 3 µM): 18.3 nM; IC50 (second compound 9.49 µM): < 9.49 nM; IC50 (second compound 30 µM): < 9.49 nM; viability, T/C (second compound 0.3 µM, first compound 0.00949 µM): 128%; viability, T/C (second compound 0.3 µM, first compound 0.03 µM): 145%; viability, T/C (second compound 0.3 µM, first compound 0.0949 µM): 134%; viability, T/C (second compound 0.3 µM, first compound 0.3 µM): 97.5%; viability, T/C (second compound 0.3 µM, first compound 0.949 µM): 28.6%; viability, T/C (second compound 0.3 µM, first compound 3 µM): 10.1%; viability, T/C (second compound 0.949 µM, first compound 0.00949 µM): 127%; viability, T/C (second compound 0.949 µM, first compound 0.03 µM): 110%; viability, T/C (second compound 0.949 µM, first compound 0.0949 µM): 68.7%; viability, T/C (second compound 0.949 µM, first compound 0.3 µM): 37.1%; viability, T/C (second compound 0.949 µM, first compound 0.949 µM): 16.3%; viability, T/C (second compound 0.949 µM, first compound 3 µM): 1.88%; viability, T/C (second compound 3 µM, first compound 0.00949 µM): 62.6%; viability, T/C (second compound 3 µM, first compound 0.03 µM): 39.6%; viability, T/C (second compound 3 µM, first compound 0.0949 µM): 26.2%; viability, T/C (second compound 3 µM, first compound 0.3 µM): 18.2%; viability, T/C (second compound 3 µM, first compound 0.949 µM): 7.02%; viability, T/C (second compound 3 µM, first compound 3 µM): 2.31%; viability, T/C (second compound 9.49 µM, first compound 0.00949 µM): 20.1%; viability, T/C (second compound 9.49 µM, first compound 0.03 µM): 16.6%; viability, T/C (second compound 9.49 µM, first compound 0.0949 µM): 12.3%; viability, T/C (second compound 9.49 µM, first compound 0.3 µM): 8.61%; viability, T/C (second compound 9.49 µM, first compound 0.949 µM): 3.42%; viability, T/C (second compound 9.49 µM, first compound 3 µM): 1.74%; viability, T/C (second compound 30 µM, first compound 0.00949 µM): 9.63%; viability, T/C (second compound 30 µM, first compound 0.03 µM): 9.43%; viability, T/C (second compound 30 µM, first compound 0.0949 µM): 6.77%; viability, T/C (second compound 30 µM, first compound 0.3 µM): 4.12%; viability, T/C (second compound 30 µM, first compound 0.949 µM): 1.89%; viability, T/C (second compound 30 µM, first compound 3 µM): 1.35%
